Data on three compounds can be found in PMC4820897, “Structural insight in the toppling mechanism of an energy-coupling factor transporter” (Nature Communications, 2016).

In assay [1] the target is T1, ECF–FolT2 (Lactobacillus delbrueckii, UniProt Q1GBI9+Q1GBJ0).
T1 construct: gene ecfA1; full ECF complex EcfA-EcfA'-EcfT-FolT2; N-terminal His10-tag and TEV site on EcfA, C-terminal STREPII tag on FolT2; expressed in E. coli MC1061; nucleotide sites on EcfA and EcfA'; with Energy-coupling factor transporter transmembrane protein EcfT; Folate family ECF transporter S component FolT2
Kind of assay: coupled-enzyme ATPase assay in proteoliposomes. The format is biochemical. The note with it: 1 mM MgATP, 50 mM KPi pH 7.5, 200 mM NaCl, 30 °C.

The target of assay [2] is T1, ECF–FolT2. Briefly: crystal structure […] Å. The format is binding. Particulars: 10 mM MgCl2; one AMP-PNP bound to each of EcfA and EcfA'; ATPase dimer open.
A further assay has as its target T2, FolT2 (Lactobacillus delbrueckii, UniProt Q1G929).
T2 construct: gene Ldb1625; solitary S-component, N-terminal His8-tag, expressed in Lactococcus lactis NZ9000, purified in n-nonyl-beta-D-glucopyranoside
Kind of assay: intrinsic fluorescence titration. The format is binding. The note with it: read-out: dissociation constant.

In assay [3] the target is T3, FolT1 (Lactobacillus delbrueckii, UniProt Q1G930).
T3 construct: gene Ldb1624; solitary S-component, N-terminal His8-tag, expressed in Lactococcus lactis NZ9000, purified in n-nonyl-beta-D-glucopyranoside
Kind of assay: intrinsic fluorescence titration; crystal structure […] Å. The format is binding. Particulars: read-out: dissociation constant.

For assay [4], the target named is T4, FolT1 (Lactobacillus delbrueckii, UniProt Q1G930, Y122N).
T4 construct: gene Ldb1624; solitary S-component, N-terminal His8-tag, expressed in Lactococcus lactis NZ9000, purified in n-nonyl-beta-D-glucopyranoside
Briefly: intrinsic fluorescence titration. The note with it: read-out: dissociation constant. The format is binding.

The target in the next assay is T5, ECF–FolT1 (Lactobacillus delbrueckii, UniProt Q1G930).
T5 construct: gene Ldb1624; full ECF complex EcfA-EcfA'-EcfT-FolT1; His10-EcfA, FolT1-STREPII; expressed in E. coli MC1061; reconstituted in proteoliposomes; Energy-coupling factor transporter transmembrane protein EcfT
Briefly: radiolabelled folate uptake in proteoliposomes. The format is biochemical. The note with it: luminal MgATP; labelled compound.

For assay [5], the target named is T6, ECF–FolT2 (Lactobacillus delbrueckii, UniProt Q1G929).
T6 construct: gene Ldb1625; His10-EcfA, FolT2-STREPII; expressed in E. coli MC1061; reconstituted in proteoliposomes; Energy-coupling factor transporter transmembrane protein EcfT
Kind of assay: radiolabelled folate uptake and efflux in proteoliposomes. The format is biochemical. The note with it: 5 mM luminal MgATP, 100 nM folate, pH 7.5, 25 °C; labelled compound.

T1 sequence (Q1GBI8 entry or part of it): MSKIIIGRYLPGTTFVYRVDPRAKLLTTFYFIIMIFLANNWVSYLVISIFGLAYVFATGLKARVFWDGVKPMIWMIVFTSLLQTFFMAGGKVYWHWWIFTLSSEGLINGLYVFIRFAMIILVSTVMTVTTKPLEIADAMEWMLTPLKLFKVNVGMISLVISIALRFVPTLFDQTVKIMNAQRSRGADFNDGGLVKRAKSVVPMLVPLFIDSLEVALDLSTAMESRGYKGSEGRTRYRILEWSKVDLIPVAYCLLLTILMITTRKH
T1 sequence (Q1GBJ0 whole entry): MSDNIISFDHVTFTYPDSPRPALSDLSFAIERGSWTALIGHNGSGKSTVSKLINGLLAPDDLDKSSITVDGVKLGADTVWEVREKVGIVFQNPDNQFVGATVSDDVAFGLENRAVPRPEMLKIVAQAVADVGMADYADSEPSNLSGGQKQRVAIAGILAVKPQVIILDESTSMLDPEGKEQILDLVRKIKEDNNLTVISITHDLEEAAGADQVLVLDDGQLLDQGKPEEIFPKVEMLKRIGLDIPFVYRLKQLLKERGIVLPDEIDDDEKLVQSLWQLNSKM
T1 sequence (Q1GBI9 whole entry): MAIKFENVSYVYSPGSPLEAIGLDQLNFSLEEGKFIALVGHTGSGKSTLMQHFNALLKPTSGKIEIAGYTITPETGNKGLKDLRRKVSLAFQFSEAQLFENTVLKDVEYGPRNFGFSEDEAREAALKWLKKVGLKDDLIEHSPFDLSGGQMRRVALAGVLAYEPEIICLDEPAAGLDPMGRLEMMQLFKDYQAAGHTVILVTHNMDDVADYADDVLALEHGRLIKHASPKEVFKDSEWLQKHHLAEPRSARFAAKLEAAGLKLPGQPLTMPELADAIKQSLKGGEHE
T1 sequence (Q1G929 entry or part of it, further chain): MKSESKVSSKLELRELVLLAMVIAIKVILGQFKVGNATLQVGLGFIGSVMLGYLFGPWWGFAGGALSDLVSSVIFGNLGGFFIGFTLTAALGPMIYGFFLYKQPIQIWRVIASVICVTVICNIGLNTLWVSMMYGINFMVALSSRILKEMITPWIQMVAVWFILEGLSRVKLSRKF
T5 sequence (Q1GBJ0 whole entry): as the sequence (Q1GBJ0 whole entry) above
T5 sequence (Q1G930 entry or part of it): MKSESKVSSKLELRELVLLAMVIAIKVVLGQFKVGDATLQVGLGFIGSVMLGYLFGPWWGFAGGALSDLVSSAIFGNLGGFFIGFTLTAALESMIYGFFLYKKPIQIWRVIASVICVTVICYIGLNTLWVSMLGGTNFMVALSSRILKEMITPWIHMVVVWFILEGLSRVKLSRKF
T5 sequence (Q1GBI9 whole entry, further chain): as the sequence (Q1GBI9 whole entry) above
T5 sequence (Q1GBI8 entry or part of it, further chain): as the sequence (Q1GBI8 entry or part of it) above
T2 sequence (Q1G929 entry or part of it): as the sequence (Q1G929 entry or part of it, further chain) above
T4 sequence (Q1G930 entry or part of it Y122N): as the sequence (Q1G930 entry or part of it) above, with Y122N counted along it
T6 sequence (Q1GBI8 entry or part of it): as the sequence (Q1GBI8 entry or part of it) above
T6 sequence (Q1GBJ0 whole entry, further chain): as the sequence (Q1GBJ0 whole entry) above
T6 sequence (Q1GBI9 whole entry, further chain): as the sequence (Q1GBI9 whole entry) above
T6 sequence (Q1G929 entry or part of it): as the sequence (Q1G929 entry or part of it, further chain) above
T3 sequence (Q1G930 entry or part of it): as the sequence (Q1G930 entry or part of it) above

In the case of `Nc1ncnc2c1ncn2[C@@H]1O[C@H](COP(=O)(O)OP(=O)(O)OP(=O)(O)O)[C@@H](O)[C@H]1O` [ATP], the “coupled-enzyme ATPase assay in proteoliposomes” value at ECF–FolT2 [1] is “we also measured the ATPase activity of ECF–FolT2 in the proteoliposomes”.

Turning to `Nc1ncnc2c1ncn2[C@@H]1O[C@H](COP(=O)(O)OP(=O)(O)NP(=O)(O)O)[C@@H](O)[C@H]1O` [AMP–PNP], the “crystal structure 3.3 Å” value at ECF–FolT2 [2] is “EcfA and EcfA′ each bind a molecule of the nucleotide”.

Regarding `Nc1nc2ncc(CNc3ccc(C(=O)N[C@@H](CCC(=O)O)C(=O)O)cc3)nc2c(=O)[nH]1` [folate], the Kd at FolT2 is 3.1 ± 1.4 nM; at FolT1 [3], 1 ± 0.24 nM; at FolT1 [4], 2.5 ± 1.2 nM. For the same compound, the “radiolabelled folate uptake in proteoliposomes” value on ECF–FolT1 was “Both ECF transporters mediated association of radiolabelled folate with the proteoliposomes”. In addition, the “radiolabelled folate uptake and efflux in proteoliposomes” value at ECF–FolT2 [5] was “ECF transporters indeed translocate their substrates across the membrane”.
